Data published in patent US10632119B2, “Fused bicyclic 2,4-diaminopyrimidine derivative as a dual ALK and FAK inhibitor” (priority 2012, dated 2020).
≈ marks a conversion by molar mass, not a printed value. Read-outs that look alike come from different tables or passages of the source.

Key:
[1] = In vitro metabolic stability, rat; type: in vitro ADME; conditions: rat (R); read-out: In vitro metabolic stability t1/2
CYP3A4 = CYP3A4 induction in vitro; conditions: @ 10 μM
Neurokinin NK1 = Neurokinin NK1 (Homo sapiens, UniProt P25103); experiment: Receptor selectivity (Cerep); type: binding
hERG = hERG (Homo sapiens, UniProt Q12809); experiment: hERG patch clamp; type: cell-based
Monkey bioavailability = conditions: in vivo, po
in vivo = conditions: both, rat, po
Method: Animals were dosed via oral gavage.
Assessment of toxicity was based on mortality, clinical observations, body weights, body weight changes, food consumption, ophthalmic examinations, and clinical and anatomic pathology. Blood samples were collected for toxicokinetic evaluations.

Muscarinic M3 = Muscarinic M3 (Homo sapiens, UniProt P20309); experiment: Receptor selectivity (Cerep); type: binding
DA transporter = DA transporter (Homo sapiens, UniProt Q01959); experiment: Receptor selectivity (Cerep); type: binding
[2] = In vitro metabolic stability, monkey; type: in vitro ADME; conditions: monkey (Mo); read-out: In vitro metabolic stability t1/2
Muscarinic M2 = Muscarinic M2 (Homo sapiens, UniProt P08172); experiment: Receptor selectivity (Cerep); type: binding
CYP 2D6 = CYP 2D6 (Homo sapiens, UniProt P10635); experiment: CYP inhibition; type: in vitro ADME
CYP 1A2 = CYP 1A2 (Homo sapiens, UniProt P05177); experiment: CYP inhibition; type: in vitro ADME
[3] = tested on: HCC-827 human NSCL carcinoma xenografts
Excerpt: (§1) Anti-Tumor Efficacy Studies in Human Tumor Xenografts of Hormone-Independent Prostate Carcinoma, NSCL Carcinoma and HNSC Carcinoma
(§2) The human prostate carcinoma cell lines, CWR22 and PC3, and human head and neck squamous cell carcinoma cell line Detroit 562 were obtained from American Tissue Culture Collection (ATCC, Manassas, Va.). […] Human non-small cell lung cancer cell line HCC-827 and human breast cancer cell line BT474 were also purchased from the ATCC (Manassas, Va.) and cultured in RPMI (Cat #10-040, Mediatech Inc, Manassas, Va.) with 10% FBS. The rabbit phospho-FAK (Tyr397) (Cat #3283) and FAK antibodies (Cat #3285) were purchased from Cell Signaling Technology (Beverly, Mass.).
(§3) The mice were then monitored daily.
(§4) The tumor volumes were then calculated with the formula of 0.5236*L*W*(L+W)/2.

[4] = tested on: PC-3 prostate tumor xenografts
Excerpt: as §1, §2, §3, §4

[5] = tested on: Detroit 562 HNSCC xenografts
Excerpt: as §1, §2, §3, §4

Histamine H2 = Histamine H2 (Homo sapiens, UniProt P25021); experiment: Receptor selectivity (Cerep); type: binding
Equilibrium solubility = type: physicochemical; conditions: thermodynamic from solid
[6] = 10 days
[7] = tested on: Karpas-299 tumor xenografts; conditions: for anti-tumor efficacy: amorphous HCl salt
Method: Anti-Tumor Efficacy Studies—General Protocol
as §4
Anti-Tumor Efficacy in NPM-ALK Positive Sup-M2 and Karpas-299 ALCL Tumor Xenograft Models in Mice

Mouse bioavailability = type: in vivo
Caco-2 permeability = type: in vitro ADME; conditions: human
CYP 2C19 = CYP 2C19 (Homo sapiens, UniProt P33261); experiment: CYP inhibition; type: in vitro ADME
[8] = In vitro metabolic stability, human; type: in vitro ADME; conditions: human (H); read-out: In vitro metabolic stability t1/2
Protein binding, dog = type: in vitro ADME; conditions: dog (D)
[9] = In vitro metabolic stability, mouse; type: in vitro ADME; conditions: mouse (M); read-out: In vitro metabolic stability t1/2
Muscarinic M1 = Muscarinic M1 (Homo sapiens, UniProt P11229); experiment: Receptor selectivity (Cerep); type: binding
Protein binding, mouse = type: in vitro ADME; conditions: mouse (M)
[10] = 4-week oral toxicity and toxicokinetic study of CEP-37440 in monkeys, 4-week recovery; type: in vivo, cynomolgus monkeys (Macaca fascicularis)
Method: Male and female cynomolgus monkeys (Macaca fascicularis) were assigned to 4 groups (3-treated and a vehicle control group) consisting of 5 monkeys/sex/group. Dose levels evaluated in this study were 0 (pH-adjusted reverse osmosis water), 2.5, 7.5, and 20 mg/kg/day. The dosing volume was 5 mL/kg. CEP-37440 was administered as the trihydrochloride dihydrate salt form. After completion of the dosing phase, 3 monkeys/sex/group were euthanized and 2 monkeys/sex/group continued on a treatment-free recovery phase for an additional 4 weeks.

Sequence of DA transporter (Q01959 whole entry, species assumed): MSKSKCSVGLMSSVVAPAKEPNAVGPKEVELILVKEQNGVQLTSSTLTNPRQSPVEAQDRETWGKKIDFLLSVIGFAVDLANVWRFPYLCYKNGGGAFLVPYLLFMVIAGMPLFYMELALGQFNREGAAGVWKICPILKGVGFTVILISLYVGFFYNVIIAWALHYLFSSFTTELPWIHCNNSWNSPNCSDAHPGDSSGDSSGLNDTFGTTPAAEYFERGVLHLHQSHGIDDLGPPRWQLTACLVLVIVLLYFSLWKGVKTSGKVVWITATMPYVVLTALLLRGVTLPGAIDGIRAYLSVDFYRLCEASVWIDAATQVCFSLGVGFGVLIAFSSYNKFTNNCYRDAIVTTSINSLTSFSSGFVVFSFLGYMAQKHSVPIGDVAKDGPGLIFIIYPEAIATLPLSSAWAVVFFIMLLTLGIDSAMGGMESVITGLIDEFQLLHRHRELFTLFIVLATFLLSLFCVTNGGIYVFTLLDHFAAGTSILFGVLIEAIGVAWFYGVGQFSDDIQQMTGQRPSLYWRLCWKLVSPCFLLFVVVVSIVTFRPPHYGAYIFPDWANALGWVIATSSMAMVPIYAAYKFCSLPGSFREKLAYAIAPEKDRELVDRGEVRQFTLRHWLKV
Sequence of CYP 2C19 (P33261 whole entry): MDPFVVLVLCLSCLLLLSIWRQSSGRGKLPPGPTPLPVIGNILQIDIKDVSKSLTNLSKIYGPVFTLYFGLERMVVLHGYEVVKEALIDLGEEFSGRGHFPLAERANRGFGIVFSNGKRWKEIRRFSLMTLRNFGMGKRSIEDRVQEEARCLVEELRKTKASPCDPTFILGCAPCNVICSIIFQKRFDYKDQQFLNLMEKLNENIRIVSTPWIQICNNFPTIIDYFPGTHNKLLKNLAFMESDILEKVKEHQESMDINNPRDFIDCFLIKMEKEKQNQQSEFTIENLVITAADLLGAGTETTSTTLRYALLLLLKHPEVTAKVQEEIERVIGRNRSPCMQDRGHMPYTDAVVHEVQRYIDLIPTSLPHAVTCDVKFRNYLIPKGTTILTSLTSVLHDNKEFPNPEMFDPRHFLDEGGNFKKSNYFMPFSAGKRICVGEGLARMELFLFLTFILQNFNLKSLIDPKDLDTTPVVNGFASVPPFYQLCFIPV
Sequence of CYP 2D6 (P10635 whole entry): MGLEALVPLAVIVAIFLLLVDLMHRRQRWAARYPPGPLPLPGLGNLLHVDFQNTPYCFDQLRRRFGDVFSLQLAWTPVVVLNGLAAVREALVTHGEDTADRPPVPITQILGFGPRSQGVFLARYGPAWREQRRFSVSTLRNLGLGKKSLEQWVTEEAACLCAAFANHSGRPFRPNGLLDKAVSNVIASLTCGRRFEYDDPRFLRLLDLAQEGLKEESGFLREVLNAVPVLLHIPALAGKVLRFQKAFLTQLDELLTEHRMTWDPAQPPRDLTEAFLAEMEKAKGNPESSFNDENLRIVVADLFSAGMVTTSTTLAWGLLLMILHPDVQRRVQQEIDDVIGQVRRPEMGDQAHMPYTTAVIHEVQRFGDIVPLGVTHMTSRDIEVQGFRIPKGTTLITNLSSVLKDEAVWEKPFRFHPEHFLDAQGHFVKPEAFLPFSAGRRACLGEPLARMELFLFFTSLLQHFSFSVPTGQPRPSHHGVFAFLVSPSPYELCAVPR
Sequence of Muscarinic M1 (P11229 whole entry): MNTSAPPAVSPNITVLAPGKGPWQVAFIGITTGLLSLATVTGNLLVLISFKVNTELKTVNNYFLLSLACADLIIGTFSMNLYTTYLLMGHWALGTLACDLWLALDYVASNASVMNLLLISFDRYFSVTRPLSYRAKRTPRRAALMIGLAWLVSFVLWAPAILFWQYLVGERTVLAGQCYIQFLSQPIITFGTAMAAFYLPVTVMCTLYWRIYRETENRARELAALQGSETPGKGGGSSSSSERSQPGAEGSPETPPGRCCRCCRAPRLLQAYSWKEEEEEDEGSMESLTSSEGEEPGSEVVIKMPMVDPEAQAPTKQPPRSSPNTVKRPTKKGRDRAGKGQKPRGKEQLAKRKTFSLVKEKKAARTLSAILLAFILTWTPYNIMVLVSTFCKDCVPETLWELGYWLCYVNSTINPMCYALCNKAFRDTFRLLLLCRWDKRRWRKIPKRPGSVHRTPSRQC
Sequence of Muscarinic M3 (P20309 whole entry): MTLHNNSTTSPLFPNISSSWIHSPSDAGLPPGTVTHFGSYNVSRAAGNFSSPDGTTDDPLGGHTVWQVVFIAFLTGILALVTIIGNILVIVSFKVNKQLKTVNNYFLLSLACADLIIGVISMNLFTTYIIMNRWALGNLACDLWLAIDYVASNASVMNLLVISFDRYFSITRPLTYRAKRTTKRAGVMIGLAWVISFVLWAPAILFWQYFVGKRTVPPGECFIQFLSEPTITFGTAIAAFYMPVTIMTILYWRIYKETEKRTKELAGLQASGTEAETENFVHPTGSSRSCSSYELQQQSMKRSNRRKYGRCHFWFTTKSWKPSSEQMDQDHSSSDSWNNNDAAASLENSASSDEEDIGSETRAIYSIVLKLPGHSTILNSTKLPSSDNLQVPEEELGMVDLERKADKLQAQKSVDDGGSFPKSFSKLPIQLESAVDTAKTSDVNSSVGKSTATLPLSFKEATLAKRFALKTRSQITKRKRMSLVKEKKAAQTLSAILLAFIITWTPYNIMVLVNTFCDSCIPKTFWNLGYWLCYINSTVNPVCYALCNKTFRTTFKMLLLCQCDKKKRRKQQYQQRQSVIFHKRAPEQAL
Sequence of Muscarinic M2 (P08172 whole entry): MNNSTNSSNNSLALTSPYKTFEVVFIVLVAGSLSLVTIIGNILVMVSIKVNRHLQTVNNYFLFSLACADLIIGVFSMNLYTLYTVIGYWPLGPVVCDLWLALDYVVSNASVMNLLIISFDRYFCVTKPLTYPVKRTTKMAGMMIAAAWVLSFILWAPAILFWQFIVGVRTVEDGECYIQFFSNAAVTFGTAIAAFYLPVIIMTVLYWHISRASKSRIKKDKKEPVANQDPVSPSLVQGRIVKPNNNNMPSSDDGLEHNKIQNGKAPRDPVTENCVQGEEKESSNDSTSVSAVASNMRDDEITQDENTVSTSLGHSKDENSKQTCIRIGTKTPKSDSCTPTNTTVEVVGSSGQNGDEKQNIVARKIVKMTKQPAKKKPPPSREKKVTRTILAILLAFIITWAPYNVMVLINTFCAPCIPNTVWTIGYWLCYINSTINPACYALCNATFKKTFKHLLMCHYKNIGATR
Sequence of CYP 1A2 (P05177 whole entry): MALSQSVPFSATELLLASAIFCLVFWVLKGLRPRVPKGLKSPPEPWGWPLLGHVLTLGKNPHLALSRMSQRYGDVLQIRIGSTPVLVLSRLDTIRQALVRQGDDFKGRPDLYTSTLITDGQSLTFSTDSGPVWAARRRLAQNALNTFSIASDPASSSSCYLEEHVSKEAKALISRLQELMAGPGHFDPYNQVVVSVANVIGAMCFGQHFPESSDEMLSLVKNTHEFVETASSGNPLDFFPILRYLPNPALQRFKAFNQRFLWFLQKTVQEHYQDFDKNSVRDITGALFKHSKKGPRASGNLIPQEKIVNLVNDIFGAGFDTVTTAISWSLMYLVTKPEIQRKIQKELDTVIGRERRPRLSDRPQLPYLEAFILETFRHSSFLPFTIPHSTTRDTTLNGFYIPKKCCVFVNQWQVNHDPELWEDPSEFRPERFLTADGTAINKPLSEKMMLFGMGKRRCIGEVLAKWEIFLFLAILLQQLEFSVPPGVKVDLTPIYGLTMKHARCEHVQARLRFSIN
Sequence of Neurokinin NK1 (P25103 whole entry): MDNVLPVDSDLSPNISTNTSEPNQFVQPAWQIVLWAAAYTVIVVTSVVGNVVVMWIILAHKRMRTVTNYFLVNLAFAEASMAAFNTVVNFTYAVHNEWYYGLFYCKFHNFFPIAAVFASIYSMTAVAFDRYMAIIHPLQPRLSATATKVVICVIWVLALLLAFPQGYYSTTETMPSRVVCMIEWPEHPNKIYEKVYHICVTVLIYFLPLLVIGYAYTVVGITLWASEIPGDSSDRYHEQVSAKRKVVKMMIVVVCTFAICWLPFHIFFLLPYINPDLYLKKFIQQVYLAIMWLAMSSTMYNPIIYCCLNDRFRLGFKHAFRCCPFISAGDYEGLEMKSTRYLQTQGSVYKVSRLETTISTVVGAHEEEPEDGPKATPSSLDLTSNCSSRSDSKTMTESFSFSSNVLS
Sequence of Histamine H2 (P25021 whole entry): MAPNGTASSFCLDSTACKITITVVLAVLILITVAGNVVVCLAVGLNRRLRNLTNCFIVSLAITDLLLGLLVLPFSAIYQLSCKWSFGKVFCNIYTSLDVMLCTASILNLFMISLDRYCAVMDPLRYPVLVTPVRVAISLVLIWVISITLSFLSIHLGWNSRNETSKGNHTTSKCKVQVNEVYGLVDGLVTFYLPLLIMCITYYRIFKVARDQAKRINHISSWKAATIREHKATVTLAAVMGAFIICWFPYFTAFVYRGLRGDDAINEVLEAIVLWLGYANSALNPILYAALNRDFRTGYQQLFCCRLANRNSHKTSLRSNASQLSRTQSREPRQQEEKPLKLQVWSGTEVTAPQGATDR

Question: What does the source list for `CNC(=O)c1ccccc1Nc1nc(Nc2ccc3c(c2OC)CCC[C@H](N2CCN(CCO)CC2)C3)ncc1Cl` [CEP-37440, 2-[[5-chloro-2-[[(6S)-6-[4-(2-hydroxyethyl)piperazin-1-yl]-1-methoxy-6,7,8,9-tetrahydro-5H-benzo[7]annulen-2-yl]amino]pyrimidin-4-yl]amino]-N-methyl-benzamide]?
Answer: half-life [1]: > 40 min; CYP3A4 induction in vitro (CYP3A4): 1.5 @ 10 μM fold; Ki (Neurokinin NK1): 1200 nM; IC50 (hERG): > 10000 nM; bioavailability (Monkey bioavailability; 10 mg/kg): 50%; bioavailability (Monkey bioavailability; 30 mg/kg): 74%; NOAEL at 4 weeks (in vivo): 10 mg/kg/day; Ki (Muscarinic M3): 3500 nM; Ki (DA transporter): 2100 nM; half-life [2]: 21 min; Ki (Muscarinic M2): 2000 nM; IC50 (CYP 2D6): > 30000 nM; IC50 (CYP 1A2): > 30000 nM; TGI ([3]; 30 mg/kg bid, day 28): 60%; TGI ([3]; 55 mg/kg bid, day 28): 80%; incidence of complete tumor regressions ([3]; 55 mg/kg bid, day 28): 30%; incidence of partial tumor regressions ([3]; 55 mg/kg bid, day 28): 30%; incidence of tumor regressions ([3]; 55 mg/kg bid, day 28): 60%; tolerability, body weight ([3]; mouse, in vivo): well tolerated, with no overt toxicity or significant body weight loss observed; incidence of complete tumor regressions ([4]; 36 day period, oral): 10%; tumor growth inhibition (TGI) ([4]; 36 day period, oral, equivalent doses of both compounds): 55%; tolerability, body weight ([4]; all dosing regimens): well tolerated with no overt toxicity or significant body weight loss observed; incidence of partial tumor regressions ([5]; 30 mg/kg bid, 28-day period): 20%; incidence of partial tumor regressions ([5]; 55 mg/kg bid, 28-day period): 30%; anti-tumor efficacy ([5]; 28-day period): tumor stasis; tolerability ([5]; all dosing regimens): well-tolerated with no morbidity or mortality observed; tumor pharmacodynamic inhibition of FAK activation ([5]; no effect on total FAK expression levels): clear tumor pharmacodynamic effect for inhibition of FAK activation; Ki (Histamine H2): 5200 nM; solubility thermodynamic (Equilibrium solubility; pH 2, simulated gastric fluid, read-out: Equilibrium solubility at pH 2): > 1000 µg/mL; solubility thermodynamic (Equilibrium solubility; pH 7.4, aqueous buffer, read-out: Equilibrium solubility at pH 7.4): 280 µg/mL (≈ 483 µM); doses with drug-related adverse findings (body weight, bone marrow, spleen, thymus, lymph node, lung) ([6]; daily gavage): ≥ 30 mg/kg/day; dose well tolerated ([6]; rat, in vivo): 10 mg/kg/day; anti-tumor efficacy ([7]; 30 mg/kg bid, 12 days): complete or near complete tumor regression; anti-tumor efficacy ([7]; 30 mg/kg qd): significant anti-tumor activity; anti-tumor efficacy ([7]; 55 mg/kg, qd, 12 days): complete or near complete tumor regression; tolerability, body weight ([7]; all dosing regimens): well tolerated with no overt toxicity and no significant body weight loss; Mouse bioavailability (Mouse bioavailability; CD-1 mouse, CEP-37440 as amorphous HCl salt): 102%; bioavailability (Mouse bioavailability; Scid, mouse, in vivo, po): 99%; Papp (Caco-2 permeability): 1.26 ×10⁻⁶ cm/s; IC50 (CYP 2C19): > 20000 nM; half-life [8]: > 40 min; Protein binding (Protein binding, dog): 94 % bound; half-life [9]: > 40 min; Ki (Muscarinic M1): 2460 nM; Protein binding (Protein binding, mouse): 85 % bound; survival ([10]; 2.5, 7.5, 20 mg/kg/day, 4 weeks): All animals survived until their scheduled sacrifice; ECG ([10]; 2.5, 7.5, 20.0 mg/kg/day, Days 3 and 27 of dosing, Day 28 of recovery): No drug-related changes in PR interval, QRS duration, QT interval, corrected QT (QTc) interval, RR interval, or heart rate; body weight ([10]; dosing or recovery phase): no drug-related effects on body weight or body weight gain; doses well tolerated, no drug-related effects ([10]; oral, 28 consecutive days): up to 20 mg/kg/day; clinical pathology test results ([10]; up to 20.0 mg/kg/day): had no effect on clinical pathology test results; pulmonary edema ([10]; up to 20 mg/kg/day, 28 days): no evidence whatsoever of pulmonary edema
